Test results reported in ChEMBL document CHEMBL5465560, “Selectivity Literature for EUbOPEN Chemogenomic Library” (2024).

Legend:
[1] = molecular target: T1, Activin receptor type-1 (Homo sapiens) (UniProt Q04771); details: at 10 µM
T1 sequence (whole entry): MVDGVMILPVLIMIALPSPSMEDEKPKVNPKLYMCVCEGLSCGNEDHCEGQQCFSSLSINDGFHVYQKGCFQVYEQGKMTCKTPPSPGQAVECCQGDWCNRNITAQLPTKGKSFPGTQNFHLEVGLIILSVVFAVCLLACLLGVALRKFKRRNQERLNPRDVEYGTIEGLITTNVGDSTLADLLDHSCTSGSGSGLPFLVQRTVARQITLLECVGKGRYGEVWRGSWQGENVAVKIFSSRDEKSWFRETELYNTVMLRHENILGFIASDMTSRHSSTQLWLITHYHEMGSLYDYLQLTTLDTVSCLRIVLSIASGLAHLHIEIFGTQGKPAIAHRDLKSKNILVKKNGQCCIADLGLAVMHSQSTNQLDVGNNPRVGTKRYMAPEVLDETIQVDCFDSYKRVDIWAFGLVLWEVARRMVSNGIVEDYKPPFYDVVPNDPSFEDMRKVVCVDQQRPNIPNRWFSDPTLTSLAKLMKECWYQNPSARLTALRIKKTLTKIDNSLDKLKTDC

[2] = molecular target: Death-associated protein kinase 1 (Homo sapiens, UniProt P53355); experiment: Selectivity interaction (Ambit KINOMEscan and KiNATiv profiling in Jurkat cells) EUB0000090b DAPK1; type: cell-based; details: at 1 µM
Death-associated protein kinase 1, sequence (P53355 whole entry, looked up): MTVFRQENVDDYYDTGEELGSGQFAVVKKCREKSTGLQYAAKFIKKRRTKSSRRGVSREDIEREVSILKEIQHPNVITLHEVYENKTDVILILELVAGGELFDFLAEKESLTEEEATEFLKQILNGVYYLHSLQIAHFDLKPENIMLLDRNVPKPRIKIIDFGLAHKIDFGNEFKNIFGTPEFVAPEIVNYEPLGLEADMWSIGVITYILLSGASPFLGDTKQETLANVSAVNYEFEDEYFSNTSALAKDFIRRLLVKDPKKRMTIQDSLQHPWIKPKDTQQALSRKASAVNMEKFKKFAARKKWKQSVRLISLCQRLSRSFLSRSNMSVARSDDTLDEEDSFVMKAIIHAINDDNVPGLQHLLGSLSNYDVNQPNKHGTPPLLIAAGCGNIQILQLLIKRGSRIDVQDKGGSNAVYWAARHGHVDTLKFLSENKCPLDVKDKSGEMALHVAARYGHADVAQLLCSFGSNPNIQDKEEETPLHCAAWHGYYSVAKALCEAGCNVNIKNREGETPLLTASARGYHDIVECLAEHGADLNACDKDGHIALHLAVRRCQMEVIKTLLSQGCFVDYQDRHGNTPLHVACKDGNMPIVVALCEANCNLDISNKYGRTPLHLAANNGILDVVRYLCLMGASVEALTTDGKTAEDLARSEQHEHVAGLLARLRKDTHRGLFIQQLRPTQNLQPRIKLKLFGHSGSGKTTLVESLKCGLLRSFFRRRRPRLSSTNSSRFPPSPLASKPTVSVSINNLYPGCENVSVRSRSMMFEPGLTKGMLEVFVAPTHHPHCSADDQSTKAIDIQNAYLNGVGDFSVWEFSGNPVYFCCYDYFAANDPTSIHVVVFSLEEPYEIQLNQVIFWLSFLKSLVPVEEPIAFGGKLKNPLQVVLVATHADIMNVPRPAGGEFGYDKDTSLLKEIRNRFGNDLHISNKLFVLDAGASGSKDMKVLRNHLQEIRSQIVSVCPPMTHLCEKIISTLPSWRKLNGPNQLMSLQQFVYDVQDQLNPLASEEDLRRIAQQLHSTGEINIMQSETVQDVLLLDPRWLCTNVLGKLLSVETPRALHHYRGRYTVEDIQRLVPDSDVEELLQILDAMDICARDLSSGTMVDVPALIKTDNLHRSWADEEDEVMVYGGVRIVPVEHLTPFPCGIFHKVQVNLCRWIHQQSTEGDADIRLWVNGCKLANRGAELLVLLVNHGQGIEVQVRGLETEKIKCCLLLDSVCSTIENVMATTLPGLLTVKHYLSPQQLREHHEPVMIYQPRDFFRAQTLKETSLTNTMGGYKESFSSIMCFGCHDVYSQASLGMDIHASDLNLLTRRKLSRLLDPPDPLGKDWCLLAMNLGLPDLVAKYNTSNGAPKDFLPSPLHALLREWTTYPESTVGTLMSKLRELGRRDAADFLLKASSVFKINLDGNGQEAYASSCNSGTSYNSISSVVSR

[3] = molecular target: T2, Serine/threonine-protein kinase RIO3 (Homo sapiens) (UniProt O14730); experiment: Selectivity interaction (Ambit KINOMEscan and KiNATiv profiling in Jurkat cells) EUB0000090b RIOK3; type: cell-based; details: at 1 µM
T2 sequence (whole entry): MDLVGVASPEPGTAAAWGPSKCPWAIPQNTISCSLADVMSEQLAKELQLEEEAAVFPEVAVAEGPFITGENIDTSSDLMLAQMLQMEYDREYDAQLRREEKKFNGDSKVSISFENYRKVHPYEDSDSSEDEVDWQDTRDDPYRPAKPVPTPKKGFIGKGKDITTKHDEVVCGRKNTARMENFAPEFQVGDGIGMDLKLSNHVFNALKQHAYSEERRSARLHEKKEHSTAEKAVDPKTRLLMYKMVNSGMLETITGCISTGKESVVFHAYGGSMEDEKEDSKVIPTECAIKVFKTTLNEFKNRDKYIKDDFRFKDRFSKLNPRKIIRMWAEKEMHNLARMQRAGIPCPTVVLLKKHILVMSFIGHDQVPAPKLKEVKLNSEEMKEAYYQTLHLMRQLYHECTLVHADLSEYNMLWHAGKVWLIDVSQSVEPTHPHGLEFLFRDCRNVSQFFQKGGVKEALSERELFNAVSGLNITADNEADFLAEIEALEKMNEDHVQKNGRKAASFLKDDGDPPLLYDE

[4] = molecular target: T3, Protein kinase C iota type (Homo sapiens) (UniProt P41743); experiment: Selectivity interaction (KinomeScan (DiscoverX)) EUB0000595a PRKCI; details: at 10 µM
T3 sequence (whole entry): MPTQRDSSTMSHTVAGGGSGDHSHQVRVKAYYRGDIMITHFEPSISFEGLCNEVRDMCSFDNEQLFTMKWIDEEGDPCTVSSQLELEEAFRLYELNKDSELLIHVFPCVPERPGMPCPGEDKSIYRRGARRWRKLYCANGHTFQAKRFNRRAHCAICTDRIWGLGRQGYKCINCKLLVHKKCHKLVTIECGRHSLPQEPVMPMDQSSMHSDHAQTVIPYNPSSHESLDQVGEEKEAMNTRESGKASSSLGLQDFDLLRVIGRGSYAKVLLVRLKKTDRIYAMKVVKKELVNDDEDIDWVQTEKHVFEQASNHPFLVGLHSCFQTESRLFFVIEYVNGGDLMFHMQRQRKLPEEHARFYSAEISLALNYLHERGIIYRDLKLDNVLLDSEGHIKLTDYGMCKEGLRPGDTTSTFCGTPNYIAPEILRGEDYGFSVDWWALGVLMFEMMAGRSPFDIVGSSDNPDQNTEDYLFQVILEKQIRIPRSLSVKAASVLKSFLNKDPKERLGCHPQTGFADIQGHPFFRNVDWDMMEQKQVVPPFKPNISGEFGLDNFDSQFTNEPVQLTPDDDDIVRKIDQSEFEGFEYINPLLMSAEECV

[5] = molecular target: Fibroblast growth factor receptor 2 (Homo sapiens) (UniProt P21802); experiment: Selectivity interaction (ProQinase) EUB0000171b FGFR2
Fibroblast growth factor receptor 2 (Homo sapiens), sequence (P21802 22-821 limits assumed): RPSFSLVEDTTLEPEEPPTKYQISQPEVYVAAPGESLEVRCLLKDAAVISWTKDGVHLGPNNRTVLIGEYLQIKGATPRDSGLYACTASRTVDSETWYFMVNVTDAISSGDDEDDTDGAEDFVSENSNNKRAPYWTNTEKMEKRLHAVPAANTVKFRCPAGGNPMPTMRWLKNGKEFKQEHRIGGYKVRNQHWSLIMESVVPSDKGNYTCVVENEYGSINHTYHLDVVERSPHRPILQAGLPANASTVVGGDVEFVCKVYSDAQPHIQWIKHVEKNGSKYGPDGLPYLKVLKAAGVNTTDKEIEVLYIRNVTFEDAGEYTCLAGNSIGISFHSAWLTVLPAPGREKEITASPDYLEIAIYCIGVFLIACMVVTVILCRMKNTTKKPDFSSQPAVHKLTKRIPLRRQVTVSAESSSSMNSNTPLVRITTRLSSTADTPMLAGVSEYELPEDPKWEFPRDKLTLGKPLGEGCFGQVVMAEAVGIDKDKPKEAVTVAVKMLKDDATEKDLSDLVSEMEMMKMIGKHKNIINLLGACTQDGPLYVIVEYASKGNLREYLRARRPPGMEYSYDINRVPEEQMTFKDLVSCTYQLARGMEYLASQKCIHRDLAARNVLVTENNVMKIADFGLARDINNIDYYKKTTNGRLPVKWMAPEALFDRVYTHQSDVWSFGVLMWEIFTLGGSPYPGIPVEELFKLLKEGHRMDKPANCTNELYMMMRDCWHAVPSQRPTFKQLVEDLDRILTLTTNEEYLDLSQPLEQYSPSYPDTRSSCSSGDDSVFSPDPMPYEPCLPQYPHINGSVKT

[6] = molecular target: Death-associated protein kinase 2 (Homo sapiens) (UniProt Q9UIK4); experiment: Selectivity interaction (ProQinase) EUB0000171b DAPK2
Death-associated protein kinase 2 (Homo sapiens), sequence (Q9UIK4 whole entry, looked up): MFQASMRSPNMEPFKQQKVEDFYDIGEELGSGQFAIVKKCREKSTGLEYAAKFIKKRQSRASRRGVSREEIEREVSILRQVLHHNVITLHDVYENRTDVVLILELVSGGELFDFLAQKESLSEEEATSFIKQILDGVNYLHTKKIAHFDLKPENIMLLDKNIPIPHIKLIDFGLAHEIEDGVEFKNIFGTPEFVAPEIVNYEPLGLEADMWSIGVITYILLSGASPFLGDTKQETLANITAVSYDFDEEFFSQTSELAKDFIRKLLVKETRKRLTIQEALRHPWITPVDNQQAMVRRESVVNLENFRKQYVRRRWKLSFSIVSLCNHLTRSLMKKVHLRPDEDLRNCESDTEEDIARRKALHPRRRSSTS

[7] = molecular target: Casein kinase II subunit alpha' (Homo sapiens) (UniProt P19784); experiment: Selectivity interaction (KinomeScan (DiscoverX)) EUB0001619a CSNK2A2; details: at 1 µM
Casein kinase II subunit alpha' (Homo sapiens), sequence (P19784 whole entry, looked up): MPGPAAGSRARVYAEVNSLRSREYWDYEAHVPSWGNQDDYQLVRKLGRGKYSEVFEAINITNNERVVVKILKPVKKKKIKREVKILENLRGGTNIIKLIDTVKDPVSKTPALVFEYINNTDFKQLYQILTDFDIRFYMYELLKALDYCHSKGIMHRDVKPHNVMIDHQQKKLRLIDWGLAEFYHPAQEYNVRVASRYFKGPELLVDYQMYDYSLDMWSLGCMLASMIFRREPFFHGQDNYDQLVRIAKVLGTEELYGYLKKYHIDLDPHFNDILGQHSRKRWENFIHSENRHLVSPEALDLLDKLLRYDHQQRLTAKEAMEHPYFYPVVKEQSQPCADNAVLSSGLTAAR

[8] = molecular target: T4, Ephrin type-B receptor 4 (Homo sapiens) (UniProt P54760); experiment: Selectivity interaction (KinomeScan (DiscoverX)) EUB0000618a EPHB4; details: at 10 µM
T4 sequence (whole entry): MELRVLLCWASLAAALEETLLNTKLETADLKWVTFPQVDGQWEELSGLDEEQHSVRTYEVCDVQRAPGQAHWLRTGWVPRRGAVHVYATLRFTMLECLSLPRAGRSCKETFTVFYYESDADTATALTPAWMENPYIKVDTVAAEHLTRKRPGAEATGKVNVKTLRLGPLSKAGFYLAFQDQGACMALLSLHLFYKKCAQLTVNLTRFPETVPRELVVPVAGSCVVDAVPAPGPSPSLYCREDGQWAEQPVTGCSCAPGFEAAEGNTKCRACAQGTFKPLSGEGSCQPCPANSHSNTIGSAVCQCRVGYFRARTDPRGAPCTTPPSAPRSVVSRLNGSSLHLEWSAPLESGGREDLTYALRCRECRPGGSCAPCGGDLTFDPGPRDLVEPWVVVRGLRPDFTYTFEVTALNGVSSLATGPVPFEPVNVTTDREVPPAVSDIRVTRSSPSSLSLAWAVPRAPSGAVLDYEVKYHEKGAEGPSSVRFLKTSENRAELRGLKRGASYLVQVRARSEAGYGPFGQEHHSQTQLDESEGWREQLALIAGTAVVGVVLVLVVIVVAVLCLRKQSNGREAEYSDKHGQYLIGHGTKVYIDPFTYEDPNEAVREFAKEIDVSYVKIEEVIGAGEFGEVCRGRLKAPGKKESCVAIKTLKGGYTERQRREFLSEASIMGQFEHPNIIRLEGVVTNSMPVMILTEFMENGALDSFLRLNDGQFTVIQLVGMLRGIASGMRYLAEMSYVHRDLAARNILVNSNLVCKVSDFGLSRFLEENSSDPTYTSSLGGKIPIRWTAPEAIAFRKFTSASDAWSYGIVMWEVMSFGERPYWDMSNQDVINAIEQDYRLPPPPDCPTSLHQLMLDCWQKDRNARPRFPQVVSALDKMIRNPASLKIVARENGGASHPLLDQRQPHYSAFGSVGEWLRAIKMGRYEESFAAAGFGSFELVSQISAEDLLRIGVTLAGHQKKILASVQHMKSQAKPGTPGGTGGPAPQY

Cc1cc([C@@H](C)Nc2ccccc2C(=O)O)c2nc(N3CCOCC3)cc(=O)n2c1 [AZD-6482]
% of control [1]: 98%

CN(C)C/C=C/C(=O)Nc1ccc(C(=O)N2CCCC(Nc3ncc(Cl)c(-c4c[nH]c5ccccc45)n3)C2)cc1 (stereo not given)
% of control [2]: 80%
% of control [3]: 69%

COCC(=O)NC/C=C/c1ccc2ncnc(Nc3ccc(Oc4ccc(C)nc4)c(C)c3)c2c1 [CP-724714]
% of control [4]: 93%

C=CC(=O)Nc1cccc(C(=O)Nc2ccc(Nc3cc(-c4[nH]c(SC)nc4C)ccn3)cc2)c1
% of control ([5]; at 1 µM): 105%
% of control ([5]; at 5 µM): 87%
% of control ([6]; at 1 µM): 92%
% of control ([6]; at 5 µM): 78%

N#Cc1cccc(-c2c[nH]c3ncnc(N4CCOCC4)c23)c1
% of control [7]: 45%

O[C@H]1CC[C@H](Nc2ncc3nc(Nc4c(F)cc(F)cc4F)n([C@H]4CCOC4)c3n2)CC1
% of control [8]: 100%
